As usually defined, the IC50 is the point on the concentration scale where inhibition reaches its midpoint.

The text below walks through data of article PMC10488223 (International Journal of Molecular Sciences, 2023).

In series [1] the target is mouse BACE-1 (Mus musculus, UniProt P56818). Briefly: BACE-1 activity, fluorescent peptide substrate. Conditions: mean ± SD, four determinations; pH 4.5. The format is biochemical. Here is the method: BACE-1 activity was assayed as previously reported. Briefly, the reaction mixtures contained 2.1 ng/µL mouse BACE-1 in 50 mM ammonium acetate buffer, pH 4.5 supplemented with 1 mM triton X-100, and the appropriate amount of the hybrid derivatives. The mixture was incubated for 10 min at room temperature and started by adding 100 nM final concentration of the fluorescent peptide substrate. The increase in fluorescence was followed kinetically using excitation and emission wavelengths of 320 and 420 nm, respectively. The rate was derived from the linear portion of the kinetics, usually in the first 30 min of the reaction. The known BACE-1 inhibitors I and IV were used as positive controls.
Sequence of mouse BACE-1 (P56818 46-501): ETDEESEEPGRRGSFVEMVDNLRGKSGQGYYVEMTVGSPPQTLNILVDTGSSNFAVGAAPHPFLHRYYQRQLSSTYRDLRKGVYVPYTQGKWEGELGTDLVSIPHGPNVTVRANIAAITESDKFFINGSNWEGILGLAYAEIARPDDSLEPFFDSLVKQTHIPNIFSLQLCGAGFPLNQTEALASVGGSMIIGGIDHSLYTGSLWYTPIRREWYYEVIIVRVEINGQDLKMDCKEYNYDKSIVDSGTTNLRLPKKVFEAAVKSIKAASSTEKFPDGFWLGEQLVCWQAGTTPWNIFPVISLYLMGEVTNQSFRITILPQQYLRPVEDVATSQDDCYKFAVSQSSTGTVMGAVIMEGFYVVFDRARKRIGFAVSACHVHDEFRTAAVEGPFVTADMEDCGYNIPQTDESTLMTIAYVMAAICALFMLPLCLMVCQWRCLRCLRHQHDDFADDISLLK

Series [2] concerns the target T1, butirrylcholinesterase from equine serum (BuChE) (Equus caballus, UniProt P81908).
T1 construct: butirrylcholinesterase from equine serum (BuChE); purchased Sigma-Aldrich (Milano, Italy); host or cells: equine serum
Description: biochemical. As to conditions: for inhibition type determined for BuChE: from Km and Vmax at different inhibitor concentrations; for IC50: mean ± SD, three determinations, pH 7.4, 500 μM butirrylthiocholine. Here is the method:
(§1) AChE or BuChE activity was assayed by the Ellman method as previously reported, using acetylthiocholine or butirrylthiocholine as a substrate, respectively. […] The reaction was started by the addition of 100 mU/mL AChE or BuChE, and the initial rate of the reaction was derived from the linear portion of the kinetics. […] Linear curve fits were obtained with the least-squares method, and the significance of the correlation was estimated from the squared correlation coefficient r^2.
(§2) The determination of the kinetic parameters Km and Vmax for both cholinesterase and monoamine oxidase activities were determined by measuring the initial velocity (v0) of substrate consumption/product formed at different substrate concentrations, as reported above. […] The Ki values obtained at different inhibitor concentrations were averaged to obtain a unique value of apparent Ki for each compound. Kinetic parameters and their corresponding standard errors were evaluated using a simple weighting method (Student’s t test).

The target of series [3] is T2, Acetylcholinesterase from Electrophorus electricus (AChE) (Electrophorus electricus, UniProt O42275).
T2 construct: purchased Sigma-Aldrich (Milano, Italy)
T2 sequence (O42275 24-633): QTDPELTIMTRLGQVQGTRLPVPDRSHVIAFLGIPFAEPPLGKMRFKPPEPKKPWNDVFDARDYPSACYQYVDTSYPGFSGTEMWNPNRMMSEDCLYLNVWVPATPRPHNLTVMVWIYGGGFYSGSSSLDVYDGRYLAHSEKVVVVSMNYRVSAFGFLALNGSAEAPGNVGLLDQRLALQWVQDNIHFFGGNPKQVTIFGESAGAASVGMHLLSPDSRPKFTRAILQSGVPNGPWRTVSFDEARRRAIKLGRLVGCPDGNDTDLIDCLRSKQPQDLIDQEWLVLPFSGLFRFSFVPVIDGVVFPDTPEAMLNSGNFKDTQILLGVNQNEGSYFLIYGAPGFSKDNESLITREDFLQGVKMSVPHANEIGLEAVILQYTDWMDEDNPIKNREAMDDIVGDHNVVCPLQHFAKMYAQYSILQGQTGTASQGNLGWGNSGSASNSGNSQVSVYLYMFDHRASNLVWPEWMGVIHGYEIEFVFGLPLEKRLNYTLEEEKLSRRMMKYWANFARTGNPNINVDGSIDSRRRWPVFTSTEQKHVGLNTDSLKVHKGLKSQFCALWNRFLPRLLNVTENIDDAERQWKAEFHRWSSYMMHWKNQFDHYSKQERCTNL
Briefly: biochemical. As to conditions: for mechanism of inhibition on AChE: from Km and Vmax at different inhibitor concentrations; for IC50: mean ± SD, three determinations, pH 7.4, 500 μM acetylthiocholine. Here is the method:
as §1, §2

Series [4] has as its target T3, Aβ 1–40 peptide (Homo sapiens, UniProt P05067).
T3 construct: Human β-amyloid peptide (1–40, cat. ab120479); purchased Abcam (Cambridge, UK) ab120479
Briefly: Aβ 1–40 self-aggregation inhibition assay (thioflavine T). The series is classed as biochemical. As to conditions: for IC50: 96 µM peptide, 37 °C, 24 h, mean ± SD, three determinations, read-out: IC50 on Aβ 1–40 fibril formation; for interference with fibril formation: up to 500 µM. Here is the method: The percent inhibition due to the presence of the self-aggregation inhibition was calculated from the decrease in the fluorescence signal after the subtraction of the background fluorescence of a thioflavin T solution obtained in the same way.

Series [5] concerns cleaved caspase 3 in SH-SY5Y cells. Description: Cleaved caspase-3 expression, Western blotting. The format is cell-based, Human. As to conditions: mixtures 24 h; Aβ peptide vs untreated cells. Here is the method:
The total lysates of SH-SY5Y cells were obtained from 6-multiwells. Lysates were taken after the cells were exposed to a preheated lysis buffer (80 °C) containing 50 mM of Tris-HCl (pH 6.8), 2% of SDS, and a protease inhibitor mixture and immediately boiled for 2 min. The protein concentration was determined using a DCA protein assay. After the addition of 0.05% bromophenol blue, 10% glycerol, and 2% β-mercaptoethanol, the samples were boiled again and loaded onto 12% SDS-polyacrylamide gels. Following electrophoresis, the polypeptides were transferred to nitrocellulose filters and blocked with TTBS/milk (TBS 1%, Tween 20, and nonfat dry milk 5%), and then the antibodies were used to reveal the respective antigens. Primary antibodies were incubated overnight at 4 °C, and, after washing, the filters were exposed to horseradish peroxidase-conjugated secondary antibody for 1 h at room temperature. The blots were developed using the chemiluminescence procedure. Experiments of immunoblot analysis were carried out in two ways: (a) electrophoresis of proteins obtained from cell extracts, as described; and (b) electrophoresis of proteins obtained by the formation of mixtures in the test tubes (in the absence of cells). […]
On the technique in general: Immunoblotting shows a protein as a band on a membrane.

The test system of series [6] is SH-SY5Y cells. Briefly: Intracellular ROS (H2DCF-DA, cytofluorimetric analysis). The series is classed as cell-based, Human. Conditions: Aβ peptide. Here is the method: (§3) Human neuroblastoma SH-SY5Y cell line is the most widely used model to reproduce in vitro AD [37]. This cell line was acquired from the American Type Culture Collection (20099 Sesto San Giovanni, Milan, Italy) and maintained in culture in Dulbecco Modified’s Eagle’s Medium (DMEM) (supplemented with 100 U/mL penicillin, 100 µg/mL streptomycin, and 10% thermally inactivated bovine fetal serum). The cells were appropriately differentiated: a treatment with trans retinoid acid 10 µM for 5 days was chosen (Sigma Aldrich, 20151 Milan, Italy). The medium was changed every 2–3 days, and when the cell line reached about 50% confluence, it was supplemented with the mixtures (MIX 0, 1, 2, 3, 4, 5, 6, 7) for a further 24 h. At the end of the treatment, all appropriate tests were performed.
The probe used to measure intracellular reactive oxygen species (ROS) is the molecule H2DCF-DA [39]. In fact, after its simple diffusion in cells, H2DCF-DA is cleaved by cellular esterases, which are responsible for the loss of an acetate group, transforming it into H2DCF. This compound can no longer leave the cell and binds the ROS to the highly fluorescent compound DCF. In this way, the quantification of DCF provides the content of cellular ROS. […] The fluorescence was evaluated by cytometric analysis (FACS Accury, Becton Dickinson, Milan, Italy). […]

Series [7] deals with SH-SY5Y cells. Description: Malondialdehyde (MDA), TBA reaction. The series is classed as cell-based, Human. As to conditions: Aβ peptide. Here is the method:
Lipid peroxidation was evaluated by measuring the reaction products of MDA with thiobarbituric acid (TBA), which forms a colorimetric product proportional to the MDA present. The cells were placed in 10 cm diameter cell culture and the following day were treated as indicated. At the end of the treatment, the cells were scraped, and then the suspension was subjected to freezing/thawing cycles. Subsequently, 36 mM TBA dissolved in glacial acetic acid was added and the mixture heated for 60 min to 100 °C. The reaction was interrupted by placing the vials on ice for 10 min, and a spectrophotometric reading was carried out at 532 nm.

Series [8] relates to SH-SY5Y cells. Description: Cell viability by MTT assay. The series is classed as cell-based, Human. Here is the method:
as §3, with “The medium was changed every 2–3 days, and when the cell line reached about 50% confluence, it was supplemented with the mixtures (MIX 0, 1, 2, 3, 4, 5, 6, 7) for a further 24 h.” left out
The use of 3-(4,5-dimethyl[…])-2,5-diphenyltetrazole (MTT) bromide allowed the determination of cell viability for the presence of active enzymes within mitochondria in living cells. Mitochondrial […] can reduce MTT by producing colorimetric modification whose spectrophotometric measurement provides valuable information on cell viability. An amount of 8 × 10^3 cells/well was plated onto 96-well plates. After 24 h, the culture medium was replaced with fresh phenol-free medium containing a solution of MTT (0.5 mg/mL), and after 4 h of incubation, 100 μL 10% SDS was added to each well to solubilize the formazan crystals. The optical density was measured at wavelengths of 540 and 690 nm using a spectrophotometric reader (X MARK Spectrophotometer Microplate Bio-Rad).
Aβ 25 μM peptide was incubated alone or in the presence the specific amount of each hybrid compound [28] for 24 h at room temperature prior to the cell treatment. […]
(In general: Formazan colour is commonly taken as a measure of viable cells.)

T1 sequence (P81908 whole entry): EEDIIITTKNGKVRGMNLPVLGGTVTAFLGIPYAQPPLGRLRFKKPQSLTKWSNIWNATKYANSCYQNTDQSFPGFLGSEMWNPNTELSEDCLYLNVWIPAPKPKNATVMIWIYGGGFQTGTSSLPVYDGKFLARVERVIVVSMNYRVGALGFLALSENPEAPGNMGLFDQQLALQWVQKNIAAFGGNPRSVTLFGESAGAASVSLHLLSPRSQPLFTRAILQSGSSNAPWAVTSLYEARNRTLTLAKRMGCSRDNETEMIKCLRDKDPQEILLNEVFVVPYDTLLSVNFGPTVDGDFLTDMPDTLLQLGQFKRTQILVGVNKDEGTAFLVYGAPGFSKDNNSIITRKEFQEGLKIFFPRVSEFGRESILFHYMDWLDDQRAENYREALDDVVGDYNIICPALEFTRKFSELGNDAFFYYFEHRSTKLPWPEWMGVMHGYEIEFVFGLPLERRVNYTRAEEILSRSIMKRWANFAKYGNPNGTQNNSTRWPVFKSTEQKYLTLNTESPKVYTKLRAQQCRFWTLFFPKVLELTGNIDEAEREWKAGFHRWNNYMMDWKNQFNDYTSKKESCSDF
T3 sequence (P05067 672-711): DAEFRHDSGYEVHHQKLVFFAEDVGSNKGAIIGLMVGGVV

In the case of `O=C(OCCc1ccc(O)c(O)c1)C1CCN(Cc2ccccc2)CC1` [HT1], the half-maximal inhibitory concentration (IC50) in series [1] amounted to 11.3 ± 1.2 µM; in series [2], 20.3 ± 2.4 µM; in series [3] it was 6.5 ± 0.8 µM; in series [4], 375 ± 143 µM. For the same compound, the “inhibition type determined for BuChE” value in series [2] is given as “mixed”. In addition, the “mechanism of inhibition on AChE” value in series [3] is listed as “uncompetitive”.
On to “Aβ peptide: Human β-amyloid peptide (1–40, cat. ab120479) from Abcam”, for which the “expression of the cleaved form of caspase 3” value in series [5] was “increased expression of caspase 3”. Besides, the “ROS in the cells” value in series [6] (after 48 and 72 h) is “no longer detectable”; in series [6] (after 24 h), “significant increase in ROS”. Moreover, the malondialdehyde accumulation result is reported as “increasing accumulation of malondialdehyde” in series [7] (48 and 72 h); “absent” in series [7] (after 24 h). Also, the “reduction in cell vitality” value in series [8] (48 and 72 h, at the concentrations considered (0.1–100 μM)) is given as “more than 20%”. Besides, the cell viability result was “ineffective” in series [8] (Aβ peptide 0.1 μM); “gradual and increasing reduction in cell viability” in series [8] (Aβ peptide 1, 10 and 100 μM).
`CC(=O)Oc1ccc(CCOC(=O)C2CCN(Cc3ccccc3)CC2)cc1` [HT4a] came in with a half-maximal inhibitory concentration (IC50) in series [1] of 115 ± 5.1 µM. Besides, in series [2], the “inhibition type determined for BuChE” value was “mixed” and 4.1 ± 0.5 µM corresponded to half-maximal inhibition (IC50). For the same compound, in series [3], the “mechanism of inhibition on AChE” value is reported as “uncompetitive” and the 50% inhibitory concentration (IC50) came to 2.9 ± 0.2 µM. For the same compound, the “interference with fibril formation” value in series [4] is recorded as “did not interfere with fibril formation”.
`COc1cc(CCOC(=O)C2CCN(Cc3ccccc3)CC2)ccc1OC(C)=O` [HT3a]: in series [1], the half-maximal inhibitory concentration (IC50) came out at 19.7 ± 0.7 µM. Moreover, in series [2], the “inhibition type determined for BuChE” value is recorded as “noncompetitive” and 4.3 ± 0.9 µM corresponded to half-maximal inhibition (IC50). Further, in series [3], the “mechanism of inhibition on AChE” value is reported as “uncompetitive” and the concentration for half-maximal inhibition (IC50) stood at 2.6 ± 0.2 µM. Also, in series [4], the “interference with fibril formation” value is “did not interfere with fibril formation”.
In series [1], `O=C(OCCc1ccc(O)cc1)C1CCN(Cc2ccccc2)CC1` [HT4] gave a 50% inhibitory concentration (IC50) of 52.2 ± 2.1 µM. In addition, in series [2], the “inhibition type determined for BuChE” value is recorded as “noncompetitive” and it took 22.9 ± 7.1 µM to reach half-maximal inhibition (IC50). In series [3], the “mechanism of inhibition on AChE” value is reported as “uncompetitive” and the IC50 stood at 4.9 ± 0.5 µM. For the same compound, the “interference with fibril formation” value in series [4] is “did not interfere with fibril formation”.
With `CC(=O)Oc1ccc(CCOC(=O)C2CCN(Cc3ccccc3)CC2)cc1OC(C)=O` [HT1a], the IC50 in series [1] is 16.9 ± 0.1 µM; in series [2], 4.2 ± 0.4 µM; in series [3] it was 4.3 ± 0.7 µM; in series [4], 106 ± 11.1 µM. Besides, the “inhibition type determined for BuChE” value in series [2] was “mixed”. In addition, in series [3], the “mechanism of inhibition on AChE” value is recorded as “mixed”.
As for `O=C(OCCc1cc(O)c(O)cc1[N+](=O)[O-])C1CCN(Cc2ccccc2)CC1` [HT2], the IC50 in series [1] was found to be 128 ± 42 µM; in series [2], 31.8 ± 5.7 µM; in series [3] it was 3.8 ± 0.3 µM; in series [4], 418 ± 41.1 µM. In addition, in series [2], the “inhibition type determined for BuChE” value is “mixed”. The “mechanism of inhibition on AChE” value in series [3] is recorded as “noncompetitive”.
For the compound `COc1cc(CCOC(=O)C2CCN(Cc3ccccc3)CC2)ccc1O` [HT3], the half-inhibitory concentration (IC50) in series [1] was found to be 76.8 ± 3 µM. For the same compound, in series [2], the “inhibition type determined for BuChE” value is “mixed” and the 50% inhibitory concentration (IC50) worked out at 7.2 ± 0.9 µM. Besides, in series [3], the “mechanism of inhibition on AChE” value was “uncompetitive” and it took 4 ± 0.4 µM to reach half-maximal inhibition (IC50). In addition, in series [4], the “interference with fibril formation” value is reported as “did not interfere with fibril formation”.
